In one test the target is T1, Syk catalytic domain (aa 356-635 with a C-terminal His-tag) (Homo sapiens, UniProt P43405).
T1 construct: His-tag (C); made in house
Put plainly: In vitro Syk kinase activity measured by trFRET, Syk catalytic domain. It is filed as biochemical.
Details: not given
As to the method:
In Vitro Syk Kinase Activity Measured by Time-Resolved Fluorescence Resonance Energy Transfer (trFRET)
0.14 nM purified Syk catalytic domain (aa 356-635 with a C-terminal His-tag purified in-house by immobilized metal ion affinity chromatography) was mixed with 0.2 μM peptide substrate (biotin-TYR1, Sequence: Biotin-(Ahx)-GAEEEIYAAFFA-COOH) at varying inhibitor concentrations in reaction buffer: 50 mM MOPSO pH 6.5, 10 mM MgCl2, 2 mM MnCl2, 2.5 mM DTT, 0.01% BSA, 0.1 mM Na3VO4 and 0.001 mM ATP. After about 60 min incubation at rt, the reaction was quenched by addition of EDTA (final concentration: 100 mM) and developed by addition of revelation reagents (final approximate concentrations: 30 mM HEPES pH 7.0, 0.06% BSA, 0.006% Tween-20, 0.24 M KF, 80 ng/mL PT66K (europium labeled anti-phosphotyrosine antibody cat #61T66KLB Cisbio, Bedford, Mass.) and 0.6 μg/mL SAXL (Phycolink streptavidin-allophycocyanin acceptor, cat #PJ255, Prozyme, San Leandro, Calif.). The developed reaction was incubated in the dark either at about 4° C. for about 14 h or for about 60 min at rt, then read via a time-resolved fluorescence detector (Rubystar, BMG) using a 337 nm laser for excitation and monitoring emission wavelengths at 665 nm. Within the linear range of the assay, the observed signal at 665 nm was directly related to phosphorylated product and can be used to calculate the IC50 values.
MOPSO buffer contains: 50 mM MOPSO pH 6.5, 10 mM MgCl2, 2 mM MnCl2, 2.5 mM DTT, 0.01% BSA, and 0.1 mM Na3VO4 HEPES buffer contains: 50 mM HEPES pH 7.1, 2.5 mM DTT, 10 mM MgCl2, 2 mM MnCl2, 0.01% BSA, and 0.1 mM Na3VO4 MOPS buffer contains: 20 mM MOPS pH 7.2, 10 mM MgCl2, 5 mM EGTA, 5 mM Beta-phosphoglycerol, 1 mM Na3VO4, 0.01% Triton-X-100 and 1 mM DTT
Biotin-TYR1-peptide sequence: Biotin-(Ahx)-GAEEEIYAAFFA-COOH Biotin-TYR2-peptide sequence: Biotin-(Ahx)-AEEEYFFLFA-amide KinEASE 51 peptides were purchased from Cisbio (cat #62ST0PEB, Bedford, Mass.)
PT66K was purchased from Cisbio (cat #61T66KLB, Bedford, Mass.) EuSTK was purchased from Cisbio (cat #62ST0PEB, Bedford, Mass.) SAXL was purchased from Prozyme (cat #PJ25S, San Leandro, Calif.) Human T-Blasts IL-2 pSTAT5 Cellular Assay
One may read the IC50 as the concentration that gives 50% inhibition. A high value points to a need for much substance. Molecule `Cn1nc(-c2ccc(S(C)(=O)=O)cc2)c2cnc3[nH]ccc3c21` [AR.1.1] returned a 50% inhibitory concentration (IC50) of 0.1 to 1 µM.
Regarding `COc1ccc(-c2nn(C)c3c2cnc2[nH]ccc23)cc1` [AU.1.1, 3-(4-methoxyphenyl)-1-methyl-1,6-dihydropyrazolo[3,4-d]pyrrolo[2,3-b]pyridine], the half-inhibitory concentration (IC50) was below 0.1 µM.
`COc1ccc(-c2n[nH]c3c2cnc2[nH]ccc23)cc1` [AU.1.2] came in with an IC50 below 0.1 µM.
Same read-out and setting: with `COc1ccc(-c2nn(CCO)c3c2cnc2[nH]ccc23)cc1` [AU.1.3] the figure was 0.1 to 1 µM.

The same test, now with this note: Syk catalytic domain (aa 356-635), trFRET, 0.001 mM ATP.
Molecule `CSc1ccc(-c2nn(C)c3c2cnc2[nH]ccc23)cc1` [AU.1, 1-Methyl-3-(4-(methylthio)phenyl)-1,6-dihydropyrazolo[3,4-d]pyrrolo[2,3-b]pyridine] registered a 50% inhibitory concentration (IC50) below 0.1 µM.
Take `Cc1nc(-c2ccc(C(C)(C)O)cc2)c2cnc3[nH]cc(Br)c3n12` [AY.1, 2-(4-(8-Bromo-1-methyl-6H-imidazo[1,5-a]pyrrolo[2,3-e]pyrazin-3-yl)phenyl)propan-2-ol]: the IC50 was below 0.1 µM.
With `CC(C)(O)c1ccc(-c2nc(C3CCCNC3)n3c2cnc2[nH]ccc23)cc1` (centres unmarked) [D.2.1], the IC50 was below 0.1 µM.
In turn, `CC(C)(O)c1ccc(-c2nc([C@@H]3CCCN(C(=O)C4(C#N)CC4)C3)n3c2cnc2[nH]ccc23)cc1` [D.2.2] registered a concentration for half-maximal inhibition (IC50) of 0.1 to 1 µM.
`Cn1ncc2cnc3[nH]c(-c4ccc(C(C)(C)O)cc4)c(C#N)c3c21` [D.2.3] gave a concentration for half-maximal inhibition (IC50) below 0.1 µM.
The molecule `CC(C)(O)c1ccc(-c2nc(-c3cccnc3CO)n3c2cnc2[nH]ccc23)cc1` [D.2.4] showed an IC50 of 0.1 to 1 µM.
Still for that read-out and setting: then `CC(C)(O)c1ccc(-c2nc(-c3cccnc3C#N)n3c2cnc2[nH]ccc23)cc1` [D.3.1], with below 0.1 µM; and `CN(C)CCNC(=O)Cc1cccc(-c2cc3c(ncc4cnn(C)c43)[nH]2)c1` [Example 1, N-(2-(dimethylamino)ethyl)-2-(3-(1-methyl-1,6-dihydropyrazolo[3,4-d]pyrrolo[2,3-b]pyridin-7-yl)phenyl)acetamide], with 0.1 to 1 µM; and `c1ccc(-c2nc(C3CCCCC3)n3c2cnc2[nH]ccc23)cc1` [Example 2, 1-Cyclohexyl-3-phenyl-6H-imidazo[1,5-a]pyrrolo[2,3-e]pyrazine], with 1 to 10 µM.
On the same count and under the same terms, then `O=C(O)/C=C/c1nc(C2CCCCC2)n2c1cnc1[nH]ccc12` [Example 3, (E)-3-(1-Cyclohexyl-6H-imidazo[1,5-a]pyrrolo[2,3-e]pyrazin-3-yl)acrylic acid], with 0.1 to 1 µM; and `CCc1c(-c2ccc(C(C)(C)O)cc2)[nH]c2ncc3nccn3c12` [Example 4, 2-(4-(1-Ethyl-3H-imidazo[1,2-a]pyrrolo[2,3-e]pyrazin-2-yl)phenyl)propan-2-ol], with 0.1 to 1 µM; and `COc1ccc2c(c1)c(-c1cc3c(ncc4cnc(CCCNC(C)=O)n43)[nH]1)cn2C` [Example 5, N-(3-(7-(5-Methoxy-1-methyl-1H-indol-3-yl)-6H-imidazo[1,5-a]pyrrolo[2,3-e]pyrazin-1-yl)propyl)acetamide], with below 0.1 µM.
As to `CC(C)(O)c1ccc(-c2nc(-c3cccnc3C#N)n3c2cnc2[nH]ccc23)cc1` [Example 6, 3-(3-(4-(2-Hydroxypropan-2-yl)phenyl)-6H-imidazo[1,5-a]pyrrolo[2,3-e]pyrazin-1-yl)picolinonitrile], the half-inhibitory concentration (IC50) was 1 to 10 µM.
On the same count and under the same terms, with `CC(C)(O)c1ccc(-c2nc(-c3ccccc3CN)n3c2cnc2[nH]ccc23)cc1` [Example 7, 2-(4-(1-(2-(Aminomethyl)phenyl)-6H-imidazo[1,5-a]pyrrolo[2,3-e]pyrazin-3-yl)phenyl)propan-2-ol] the figure was 0.1 to 1 µM; with `Cn1cc(-c2cc3c(ncc4cnn(C)c43)[nH]2)c2cc(C(=O)NS(C)(=O)=O)ccc21` [Example 8, 1-Methyl-3-(1-methyl-1,6-dihydropyrazolo[3,4-d]pyrrolo[2,3-b]pyridin-7-yl)-N-(methylsulfonyl)-1H-indole-5-carboxamide], below 0.1 µM.
For `COc1ccc2c(c1)c(-c1cc3c4c(cnc3n1COP(=O)(O)O)cnn4C)cn2C` [Example 9, (7-(5-Methoxy-1-methyl-1H-indol-3-yl)-1-methylpyrazolo[3,4-d]pyrrolo[2,3-b]pyridin-6(1H)-yl)methyl dihydrogen phosphate], the IC50 lay in the range of 1 to 10 µM.
Same read-out and setting: then `COc1ccc2c(c1)c(-c1cc3c(ncc4cnc(C)n43)n1COP(=O)(O)O)cn2C` [Example 10, (7-(5-Methoxy-1-methyl-1H-indol-3-yl)-1-methyl-6H-imidazo[1,5-a]pyrrolo[2,3-e]pyrazin-6-yl) methyl disodium phosphate], with 1 to 10 µM.
Molecule `Cc1nc(-c2ccc(C(C)(C)O)cc2)c2cnc3[nH]c(Br)cc3n12` [Example 11, 2-(4-(7-Bromo-1-methyl-6H-imidazo[1,5-a]pyrrolo[2,3-e]pyrazin-3-yl)phenyl)propan-2-ol] returned an IC50 of 0.1 to 1 µM.
Still for that read-out and setting: with `COC(=O)Cn1cc(-c2nc(C)n3c2cnc2[nH]ccc23)cn1` [Example 12, Methyl 2-(4-(1-methyl-6H-imidazo[1,5-a]pyrrolo[2,3-e]pyrazin-3-yl)-1H-pyrazol-1-yl)acetate] the figure was 0.1 to 1 µM.
The molecule `CN(C)CC(=O)NCc1cccc(-c2cc3c(ncc4cnn(C)c43)[nH]2)c1` [J.1.1.1] registered a half-inhibitory concentration (IC50) of 0.1 to 1 µM.
As for `COCCC(=O)NCc1cccc(-c2cc3c(ncc4cnn(C)c43)[nH]2)c1` [J.1.1.2], the IC50 was in the range of 0.1 to 1 µM.
As for `Cn1ncc2cnc3[nH]c(-c4cccc(CNC(=O)CCN5CCOCC5)c4)cc3c21` [J.1.1.3], the half-inhibitory concentration (IC50) was in the range of 0.1 to 1 µM.
For `CCCCC(=O)NCc1cccc(-c2cc3c(ncc4cnn(C)c43)[nH]2)c1` [J.1.1.4], the half-inhibitory concentration (IC50) lay in the range of 0.1 to 1 µM.
As for `COc1ccc(-c2nc(C(=O)NCCO)n3c2cnc2[nH]ccc23)cc1` [J.1.2.1], the half-inhibitory concentration (IC50) was below 0.1 µM.
Regarding `Cc1nc(-c2ccc(C3(O)CCN(C(=O)CC#N)CC3)cc2)c2cnc3[nH]ccc3n12` [J.1.3.1], the IC50 was below 0.1 µM.
Take `CN(C)C(=O)c1ccc2c(-c3cc4c(ncc5cnn(C)c54)[nH]3)cn(C)c2c1` [J.1.4.1]: the concentration for half-maximal inhibition (IC50) was below 0.1 µM.
With `Cn1cc(-c2cc3c(ncc4cnn(C)c43)[nH]2)c2ccc(C(=O)NCC(C)(C)CO)cc21` [J.1.4.2], the IC50 is below 0.1 µM.
Molecule `Cn1cc(-c2cc3c(ncc4cnn(C)c43)[nH]2)c2ccc(C(=O)NC(C)(C)CO)cc21` [J.1.4.3] had a half-inhibitory concentration (IC50) below 0.1 µM.
Still for that read-out and setting: with `CC(=O)c1ccc(-c2cc3c(ncc4cnc(C(=O)N5CCCC5)n43)[nH]2)cc1` [J.1.5.1] the figure was below 0.1 µM.
The same measure, in the same setting: then `CC(=O)c1ccc(-c2cc3c(ncc4cnc(C(=O)NCCN(C)C)n43)[nH]2)cc1` [J.1.5.2], with 0.1 to 1 µM; and `CCCNC(=O)c1ccc(-c2nc(C)n3c2cnc2[nH]ccc23)cc1Cl` [J.1.6.1], with 0.1 to 1 µM; and `CCCNC(=O)c1cc(-c2nc(C)n3c2cnc2[nH]ccc23)ccc1OC` [J.1.7.1], with 0.1 to 1 µM.
In turn, `COc1ccc(-c2nc(C)n3c2cnc2[nH]ccc23)cc1C(=O)NCCN(C)C` [J.1.7.2] had an IC50 of 0.1 to 1 µM.
On the same count and under the same terms, with `COc1ccc(-c2nc(C)n3c2cnc2[nH]ccc23)cc1C(=O)NCCO` [J.1.7.3] the figure was 0.1 to 1 µM.
`COc1ccc(-c2nc(C)n3c2cnc2[nH]ccc23)cc1C(N)=O` [J.1.7.4] yielded a concentration for half-maximal inhibition (IC50) of 0.1 to 1 µM.
The same measure, in the same setting: with `Cn1cc(-c2cc3c(ncc4cnn(C)c43)[nH]2)c2cc(C(=O)NCCN3CCOCC3)ccc21` [J.1.8.1] the figure was below 0.1 µM.
Same read-out and setting: then `CN(C)CCNC(=O)c1ccc2c(c1)c(-c1cc3c(ncc4cnn(C)c43)[nH]1)cn2C` [J.1.8.2], with 0.1 to 1 µM; and `Cn1cc(-c2cc3c(ncc4cnn(C)c43)[nH]2)c2cc(C(=O)N3CCC(CO)CC3)ccc21` [J.1.8.3], with below 0.1 µM; and `CN(C)C(=O)c1ccc2c(c1)c(-c1cc3c(ncc4cnn(C)c43)[nH]1)cn2C` [J.1.8.4], with below 0.1 µM.
Consider `CN(CC(C)(C)CO)C(=O)c1ccc2c(c1)c(-c1cc3c(ncc4cnn(C)c43)[nH]1)cn2C` [J.1.8.5], for which the IC50 is below 0.1 µM.
`CN1CCN(C(=O)CNC(=O)c2ccc3c(c2)c(-c2cc4c(ncc5cnn(C)c54)[nH]2)cn3C)CC1` [J.1.8.6]: the 50% inhibitory concentration (IC50) is below 0.1 µM.
For `Cn1cc(-c2cc3c(ncc4cnn(C)c43)[nH]2)c2cc(C(=O)NCCO)ccc21` [J.1.8.7], the half-inhibitory concentration (IC50) was below 0.1 µM.
Still for that read-out and setting: with `COc1ccc2c(c1)c(-c1cc3c(ncc4cnc([C@@H]5CCN(C(C)=O)C5)n43)[nH]1)cn2C` [J.2.1.1] the figure was 0.1 to 1 µM.

For the origin of these results see US20140349970A1 (ABBVIE INC., priority 2009, published 2014).
